{"source": "patent US8445405B2", "about": "“Synergistic herbicidal compositions containing aminopyralid, 2,4-dichlorophenoxyacetic acid and atrazine” (Dow AgroSciences, LLC., priority 2010, dated 2013)", "key": {"[1]": {"tested_on": "redroot pigweed (Amaranthus retroflexus, AMARE)", "experiment": "Field trial, post-emergence weed control in corn (Jalisco, Mexico), visual rating", "assay_type": "in vivo", "protocol": "(§1) These trials were conducted under normal corn crop conditions. Trial sites were located in commercially grown corn in the Jalisco (Mexico) area. The corn crop was grown using normal cultural practices for fertilization, seeding, and maintenance to ensure good growth of the crop and the weeds. The trials were conducted using normal research methodology. Trial plots were between 6 to 7 meters (m) wide by 10 m long. All treatments were applied using a randomized complete block trial design with 3 or 4 replications per treatment. The trial sites had naturally occurring populations of weeds. The weed spectrum included, but was not limited to, redroot pigweed (Amaranthus retroflexus, AMARE), bur-cucumber (Sicyos angulatus, SIYAN). Treatments consisted of tank mixes of Tronador™ herbicide and atrazine applied in water. The application volumes were between 250 to 300 liters per hectare (L/ha). All applications were made using precision gas hand sprayers using a 3 m boom using flat fan 8002 nozzles to broadcast the treatments on the weeds.\n(§2) The treated plots and control plots were rated blind at various intervals after application. Ratings were based on Percent (%) Visual weed control, where 0 corresponds to no injury and 100 corresponds to complete kill.\n(§3) Colby's equation was used to determine the herbicidal effects expected from the mixtures (Colby, S. R. Weeds 1967, 15, 20-22. Calculation of the synergistic and antagonistic response of herbicide combinations).\n(§4) The following equation was used to calculate the expected activity of mixtures containing two active ingredients, A and B: Expected=A+B−(A×B/100)\n(§5) A=observed efficacy of active ingredient A at the same concentration as used in the mixture.\n(§6) B=observed efficacy of active ingredient B at the same concentration as used in the mixture."}, "[2]": {"tested_on": "bur-cucumber (Sicyos angulatus, SIYAN)", "experiment": "Field trial, post-emergence weed control in corn (Jalisco, Mexico), visual rating", "assay_type": "in vivo", "protocol": "as §1, §2, §3, §4, §5, §6"}, "[3]": {"conditions": "15 days after application, Atrazine 450 g ai/ha"}, "[4]": {"conditions": "15 days after application, Atrazine 900 g ai/ha"}, "[5]": {"conditions": "30 days after application, Atrazine 450 g ai/ha"}, "[6]": {"conditions": "30 days after application, Atrazine 900 g ai/ha"}, "[7]": {"conditions": "45 days after application, Atrazine 450 g ai/ha"}, "[8]": {"conditions": "45 days after application, Atrazine 900 g ai/ha"}, "[9]": {"conditions": "60 days after application, Atrazine 450 g ai/ha"}, "[10]": {"conditions": "60 days after application, Atrazine 900 g ai/ha"}}, "data": [{"smiles": "CCNc1nc(Cl)nc(NC(C)C)n1", "note": "[Atrazine, 6-chloro-N-ethyl-N′-(1-methylethyl)-1,3,5-triazine-2,4-diamine]", "values": [{"measurement": "AMARE Obs - Percent control observed", "setting": "[1]; [3]", "result": 35, "unit": "%"}, {"measurement": "AMARE Obs - Percent control observed", "setting": "[1]; [4]", "result": 46.3, "unit": "%"}, {"measurement": "AMARE Obs - Percent control observed", "setting": "[1]; [5]", "result": 77.5, "unit": "%"}, {"measurement": "AMARE Obs - Percent control observed", "setting": "[1]; [6]", "result": 82.5, "unit": "%"}, {"measurement": "AMARE Obs - Percent control observed", "setting": "[1]; [7]", "result": 91.3, "unit": "%"}, {"measurement": "AMARE Obs - Percent control observed", "setting": "[1]; [8]", "result": 94.8, "unit": "%"}, {"measurement": "AMARE Obs - Percent control observed", "setting": "[1]; [9]", "result": 91.3, "unit": "%"}, {"measurement": "AMARE Obs - Percent control observed", "setting": "[1]; [10]", "result": 97, "unit": "%"}, {"measurement": "SIYAN Obs - Percent control observed", "setting": "[2]; [3]", "result": 27.5, "unit": "%"}, {"measurement": "SIYAN Obs - Percent control observed", "setting": "[2]; [4]", "result": 42.5, "unit": "%"}, {"measurement": "SIYAN Obs - Percent control observed", "setting": "[2]; [5]", "result": 36.3, "unit": "%"}, {"measurement": "SIYAN Obs - Percent control observed", "setting": "[2]; [6]", "result": 60, "unit": "%"}, {"measurement": "SIYAN Obs - Percent control observed", "setting": "[2]; [7]", "result": 56.3, "unit": "%"}, {"measurement": "SIYAN Obs - Percent control observed", "setting": "[2]; [8]", "result": 66.3, "unit": "%"}, {"measurement": "SIYAN Obs - Percent control observed", "setting": "[2]; [9]", "result": 53.8, "unit": "%"}, {"measurement": "SIYAN Obs - Percent control observed", "setting": "[2]; [10]", "result": 65, "unit": "%"}]}]}
